Patent US20240366634A1, “METHODS FOR THE TREATMENT OF CB1-, TRPA1- AND TRPV1-DEPENDENT CONDITIONS” (BUZZELET DEVELOPMENT AND TECHNOLOGIES LTD., priority 2021, published 2024)

Columns and labels:
Type in all cases: cell-based
hTRPA1 = molecular target: T1, hTRPA1 (Homo sapiens, UniProt O75762); test: Live-cell calcium imaging (Fura-2) of TRPA1 activation in TREx 293 cells
T1 construct: expressed in transfected cells; host or cells: TREx 293 cells, pcDNA4/TO vector, doxycycline-induced
Procedure: rTRPV1 or hTRPA1 were stably expressed in TREx 293 cells following the manufacturer's protocol (Invitrogen, MA, USA). Briefly, TREx host cell line (Invitrogen, MA, USA) was transfected with pcDNA4/TO containing the gene of interest using Mirus LT1 transfection reagent (Mirus Bio, WI, USA) with Opti-MEM I Reduced Serum Medium (Invitrogen, MA, USA). Successful recombination and maintenance were confirmed through zeocin (500 μg/ml; Invivogen, Toulouse, France) selection to establish a stably-transfected cell line. Cells were grown in DMEM (Sigma-Aldrich, MO, USA) supplemented with 10% FBS, 1% penicillin-streptomycin, 2 mM L-alanine L-glutamine, and 25 mM HEPES (pH 7.3) supplemented with 5 μg/ml blasticidin at 37° C. and 5% CO2. Cells were passaged twice per week. Three hours before analysis, cells were treated with doxycycline (0.2-1 μg/ml) to induce transgene expression.
Flip-in TREX293T cells were spotted at PDL (0.2 mg/ml)-coated imaging chambers (μ-slide, 8-well; Ibidi, Martinsried, Germany) and incubated for 1.5-2 h in a humidified incubator at 37° C. and 5% CO2. Cells were loaded with 3 μg/ml Fura-2 AM (Thermo Fisher Scientific) dissolved in Ringer solution. The imaging chamber was placed onto the inverted microscope (IX70; Olympus, Tokyo, Japan). Cells were illuminated with a 175W xenon arc lamp, and excitation wavelengths (340/380 nm) were selected by a Lambda DG-4 monochromatic wavelength changer (Sutter Instrument, Novato, CA, USA). Intracellular Ca2+ concentration was measured by digital video microfluorometry illuminated interline CCD camera (Exi Blue; QImaging, Surrey, BC, Canada) using MetaFluor fluorescence ratio imaging software (Molecular Devices). Dual images (340 and 380 nm excitation, 510 nm emission) were collected, and pseudocolor ratio-metric images were monitored every 4 s during the experiment. Data analysis was performed with MetaFluor fluorescence ratio imaging software. Data are presented as a normalized intensity of baseline fluorescence. All experiments were carried out at room temperature.
Data for THC (leftmost column) and for THC with a 1/10 concentration of a terpene are presented. Response amplitudes are normalized to the maximal activation obtained by administration of Allyl Isothiocyanate (AITC). Numbers in parentheses represent p values for the comparison of the TRPA1 activation for THC and for THC plus a 1/10 concentration terpene.

GIRK channel = molecular target: T2, GIRK channel (Homo sapiens, UniProt P48051+P48549); test: Receptor-independent effect on GIRK current in oocytes expressing the GIRK channel but not the CB1 receptor
T2 construct: expressed in transfected cells; host or cells: Xenopus laevis oocytes injected with cRNA
T2 sequence (P48549 1-501): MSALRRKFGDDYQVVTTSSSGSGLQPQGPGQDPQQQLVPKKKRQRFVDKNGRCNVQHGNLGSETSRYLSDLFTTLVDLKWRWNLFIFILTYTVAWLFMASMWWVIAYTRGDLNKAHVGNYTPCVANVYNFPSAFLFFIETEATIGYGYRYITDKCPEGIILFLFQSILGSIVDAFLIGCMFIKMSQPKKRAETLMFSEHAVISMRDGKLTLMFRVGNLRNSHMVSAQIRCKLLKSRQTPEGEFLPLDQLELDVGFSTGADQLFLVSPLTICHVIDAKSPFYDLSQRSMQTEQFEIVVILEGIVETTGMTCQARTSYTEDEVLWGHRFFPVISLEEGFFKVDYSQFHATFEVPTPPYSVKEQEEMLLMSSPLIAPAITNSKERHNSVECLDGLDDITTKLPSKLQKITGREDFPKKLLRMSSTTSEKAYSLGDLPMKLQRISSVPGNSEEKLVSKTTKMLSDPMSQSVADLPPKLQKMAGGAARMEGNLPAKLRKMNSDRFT
T2 sequence (P48051 1-423): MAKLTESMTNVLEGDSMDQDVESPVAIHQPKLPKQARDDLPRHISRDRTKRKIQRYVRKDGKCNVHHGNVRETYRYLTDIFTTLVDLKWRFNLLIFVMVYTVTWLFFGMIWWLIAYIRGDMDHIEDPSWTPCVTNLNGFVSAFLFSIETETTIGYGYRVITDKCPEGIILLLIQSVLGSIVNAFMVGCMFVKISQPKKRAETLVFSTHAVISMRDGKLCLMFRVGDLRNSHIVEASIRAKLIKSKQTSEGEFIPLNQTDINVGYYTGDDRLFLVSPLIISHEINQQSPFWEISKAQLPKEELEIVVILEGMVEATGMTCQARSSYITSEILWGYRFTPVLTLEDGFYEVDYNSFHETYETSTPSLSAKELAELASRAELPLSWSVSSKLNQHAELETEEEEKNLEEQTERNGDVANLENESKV
Procedure: To do so, the effect of THC and a panel of various terpenes was measured on oocytes expressing the GIRK channel but not the CB1 receptor.

CB1 receptor [1] = molecular target: T3, CB1 receptor (Homo sapiens, UniProt P21554); test: CB1 receptor activation by THC in combination with terpenes, Xenopus oocyte GIRK current; details: terpene:THC weight/weight ratio 1:10; ratio of THC concentrations evoking 50% of maximal response with and without terpene
T3 construct: expressed in transfected cells; host or cells: Xenopus laevis oocytes injected with cRNA
Procedure: Xenopus oocytes were used as a functional expression system, as described in Example 1.
Terpenes were administered together with tetrahydrocannabinol (THC) at a terpene to THC weight/weight ratio in the range between 0.05:1 and 1:1.
Augmented activation was given as fold change. Fold change in potency is given as the ratio between the THC concentration required to evoke 50% of the maximal response in the presence of terpene and the THC concentration that evoked the same response in the absence of terpene.

CB1 receptor [2] = molecular target: T3, CB1 receptor; test: CB1 receptor activation by terpenes, CB1-mediated GIRK currents in Xenopus oocytes (two-electrode voltage clamp); details: 10 μM terpene alone; response amplitude normalized to response obtained with 10 μM THC; Xenopus oocytes expressing CB1, GIRK1/2, Gαi3
Procedure: To test the possibility that the presence of various terpenes affects the activation of the CB1 receptor, the Inventors used Xenopus oocytes as a functional expression system. To this end, Xenopus oocytes were injected with cRNAs of proteins involved in the pathway leading to activation of K+ currents by CB1 receptor via βγ subunits of the G-proteins: The CB1 receptor, the two subunits of the GIRK channel (GIRK1 and GIRK2), and the Gαi3 subunit.
cDNA plasmids of the two subunits (GIRK1 and GIRK2) of the G protein-coupled inwardly-rectifying potassium (GIRK) receptor, the CB1 receptor, and the α subunit of the G-protein (Gαi3) were linearized with the appropriate restriction enzymes. The linearized plasmids were transcribed in vitro using a standard procedure.
X. laevis oocytes were isolated and incubated in NDE96 solution composed of ND96 (in mM: 96 NaCl, 2 KCl, 1 CaCl2, 1 MgCl2, 5 Hepes, with pH adjusted to 7.5 with NaOH) with the addition of 2.5 mM Na+ pyruvate, 100 units/ml penicillin, and 100 μg/ml streptomycin. A day after their isolation, the oocytes were injected with the relevant cRNAs. cRNAs of CB1 receptor (2 ng) and GIRK1 and GIRK2 (200 pg each) were injected. In addition, cRNA of Gαi3 (1000 pg) was injected to decrease the basal GIRK current (IK) and to improve the relative activation by the agonist (17).
Currents were measured 3-5 days after cRNA injection and were recorded using the standard two-electrode voltage clamp technique (Axoclamp 2B amplifier, Axon Instruments, Foster City, CA). Each oocyte was placed in the recording bath containing ND96 solution and was impaled with two electrodes pulled from 1.5-mm Clark capillaries (CEI, Pangboure, England). Both electrodes were filled with 3M KCl solution and the electrodes resistances were between 1-5 MΩ). The CB1-mediated GIRK currents were measured in a 24 mM K+ solution (in mM: 72 NaCl, 24 KCl, 1 CaCl2, 1 MgCl2, 5 Hepes, with pH adjusted to 7.5 with KOH). pCLAMP10 software (Axon Instruments) was used for data acquisition and analysis.
Next, the dependence of the THC-induced K+ current (ITHC) on THC concentration (dose-response) was measured. The oocyte was voltage-clamped to-80 mV in a low K+ (2 mM K+) solution, ND96. Basal GIRK current (IK) was developed upon replacement of the ND96 by the 24 mM K+ solution. This current represents the basal activation of GIRK channel by endogenous βγ subunits present in the oocytes. Then, five concentrations of THC were applied sequentially, giving rise to ITHC. This current was terminated upon washout of THC. Employing this basic experimental protocol, a full dose-response curve was constructed. To be able to compare between oocytes, ITHC at any particular THC concentration was normalized to ITHC obtained at a 10 μM, defined as the reference response.
Next, the effect of terpenes on CB1 activation was assessed.
Response amplitudes were normalized to the response obtained with 10 μM THC.

[3] = 30 μM THC with a 1/10 concentration of the terpene
[4] = 8 μM THC with a 1/10 concentration of the terpene

T1 sequence (O75762 whole entry): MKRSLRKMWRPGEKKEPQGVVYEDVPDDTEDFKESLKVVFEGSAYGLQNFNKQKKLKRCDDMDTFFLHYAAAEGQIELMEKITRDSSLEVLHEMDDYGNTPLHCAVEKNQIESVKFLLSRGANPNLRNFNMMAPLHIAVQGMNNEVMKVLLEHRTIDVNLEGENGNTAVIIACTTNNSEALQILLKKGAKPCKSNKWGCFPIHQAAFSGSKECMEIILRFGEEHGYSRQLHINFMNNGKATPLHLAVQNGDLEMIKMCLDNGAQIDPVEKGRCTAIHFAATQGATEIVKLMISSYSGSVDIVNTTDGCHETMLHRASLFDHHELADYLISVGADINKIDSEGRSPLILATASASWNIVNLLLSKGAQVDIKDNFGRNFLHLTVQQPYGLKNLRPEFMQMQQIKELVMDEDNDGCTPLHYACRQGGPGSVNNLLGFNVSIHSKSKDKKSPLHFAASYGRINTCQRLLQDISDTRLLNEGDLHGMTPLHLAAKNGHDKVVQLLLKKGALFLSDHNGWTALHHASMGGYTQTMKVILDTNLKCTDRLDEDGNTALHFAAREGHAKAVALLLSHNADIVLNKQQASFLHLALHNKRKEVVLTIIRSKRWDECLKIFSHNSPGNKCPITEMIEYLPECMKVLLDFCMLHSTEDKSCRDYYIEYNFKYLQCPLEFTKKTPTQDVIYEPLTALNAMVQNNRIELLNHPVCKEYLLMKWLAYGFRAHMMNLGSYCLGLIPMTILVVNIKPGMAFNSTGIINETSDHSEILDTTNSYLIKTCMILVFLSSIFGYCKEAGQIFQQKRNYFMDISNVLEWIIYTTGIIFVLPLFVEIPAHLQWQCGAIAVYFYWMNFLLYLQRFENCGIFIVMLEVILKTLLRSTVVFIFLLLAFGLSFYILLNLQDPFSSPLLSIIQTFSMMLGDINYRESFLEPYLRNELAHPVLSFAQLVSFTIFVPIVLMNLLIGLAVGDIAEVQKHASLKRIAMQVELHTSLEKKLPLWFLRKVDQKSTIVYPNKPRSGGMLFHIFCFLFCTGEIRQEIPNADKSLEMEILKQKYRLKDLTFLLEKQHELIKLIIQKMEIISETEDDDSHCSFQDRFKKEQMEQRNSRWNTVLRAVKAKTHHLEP
T3 sequence (P21554 whole entry): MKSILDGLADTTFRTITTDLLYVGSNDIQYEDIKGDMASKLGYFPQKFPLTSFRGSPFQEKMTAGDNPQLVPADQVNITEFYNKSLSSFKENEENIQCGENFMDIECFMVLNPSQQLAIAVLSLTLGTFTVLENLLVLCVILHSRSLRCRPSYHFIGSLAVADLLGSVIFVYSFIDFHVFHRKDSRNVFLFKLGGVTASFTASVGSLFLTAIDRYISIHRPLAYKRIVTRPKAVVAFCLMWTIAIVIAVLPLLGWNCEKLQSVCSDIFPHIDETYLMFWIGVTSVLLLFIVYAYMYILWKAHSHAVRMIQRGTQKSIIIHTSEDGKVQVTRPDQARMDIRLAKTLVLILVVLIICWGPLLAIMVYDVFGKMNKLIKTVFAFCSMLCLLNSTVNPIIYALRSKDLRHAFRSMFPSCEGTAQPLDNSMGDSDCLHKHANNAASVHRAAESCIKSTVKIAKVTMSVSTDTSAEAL

Compound | Fold change of THC potency by terpene, at terpene:THC ratio of 1:10 (CB1 receptor [1]) | Response to 10 μM terpene (CB1 receptor [2]) | also measured
CC(C)=CCCC(C)=CC=O [Citral] |  |  | TRPA1 response amplitude normalized to maximal activation by AITC (hTRPA1; [3]): 0.96
CC1CCC(C(C)C)C(O)C1 (centres unmarked) [Menthol] |  |  | TRPA1 response amplitude normalized to maximal activation by AITC (hTRPA1; [4]): 0.44
CCCCCc1cc(O)c2c(c1)OC(C)(C)[C@@H]1CCC(C)=C[C@@H]21 [THC, tetrahydrocannabinol, reference compound] |  |  | Effect on the GIRK current (GIRK channel): None of these compounds showed an effect on the GIRK current; TRPA1 response amplitude normalized to maximal activation by AITC (hTRPA1; 8 μM THC alone): 0.35; TRPA1 response amplitude normalized to maximal activation by AITC (hTRPA1; 30 μM THC alone): 0.8
CC1(C)C2CCC1(C)C(O)C2 (centres unmarked) [borneol] | 4.469 |  | 
CC12CCC(CC1)C(C)(C)O2 [eucalyptol] |  | 0.41 ± 0.04 | TRPA1 response amplitude normalized to maximal activation by AITC (hTRPA1; [4]): 0.48; TRPA1 response amplitude normalized to maximal activation by AITC (hTRPA1; [3]): 0.93
CC(C)=CCC/C(C)=C/CO [geraniol] | 1.576 | 0.31 ± 0.08 | 
C=C(C)[C@H]1CC=C(C)CC1 [limonene] | 3.369 | 0.23 ± 0.02 | 
C=CC(C)(O)CCC=C(C)C (centres unmarked) [linalool] | 1.553 |  | TRPA1 response amplitude normalized to maximal activation by AITC (hTRPA1; [4]): 0.44; TRPA1 response amplitude normalized to maximal activation by AITC (hTRPA1; [3]): 0.93
C=CC(=C)CCC=C(C)C [myrcene] |  | 0.26 ± 0.07 | 
C=CC(C)=CCC=C(C)C [ocimene] | 2.639 | 0.36 ± 0.05 | 
C=C1CCC2(C(C)C)CC12 (centres unmarked) [sabinene] | 1.685 |  | 
CC1=CCC(=C(C)C)CC1 [terpinolene] |  | 0.45 ± 0.02 | 
CC1=CCC2CC1C2(C)C (stereo not drawn) [α-pinene] |  | 0.29 ± 0.03 | 
C=C1CCC2CC1C2(C)C (stereo not drawn) [β-pinene] |  | 0.29 ± 0.06 | 
